Laboratory results: ChEMBL document CHEMBL5604066, “ASAP - DENV-4 NS2B-NS3 protease fluorescence dose response” (2024)

Molecular target: T1, NS3 protease (dengue virus type 4, UniProt A0A0K0TQ36)
T1 sequence (A0A0K0TQ36 whole entry): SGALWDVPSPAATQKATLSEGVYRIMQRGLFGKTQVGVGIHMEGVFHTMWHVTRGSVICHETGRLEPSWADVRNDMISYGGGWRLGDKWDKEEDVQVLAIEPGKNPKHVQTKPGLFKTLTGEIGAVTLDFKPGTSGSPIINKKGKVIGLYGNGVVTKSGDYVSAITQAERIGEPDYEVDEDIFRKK
Assay: Functional biochemical assay to identify treatments for viral infectious disease that targets Dengue virus type 4 NS2B-NS3 protease. Utilizing a direct enzyme activity measurement method, reading the fluorescence intensity is used to characterize the relative potency of inhibitors as IC50.
Set-up: species or system Philippines/H241/1956

SMILES	IC50
N#Cc1ccc(-c2nc3c(C(=O)Nc4ccc5c(c4)CNC5)cc(F)cc3[nH]2)cc1	1.92 µM
COc1cccc(-c2nc3c(C(=O)Nc4ccc5c(c4)CNC5)cc(F)cc3[nH]2)c1	5.32 µM
O=C(Nc1ccc2c(c1)CNC2)c1cc(F)cc2[nH]c(-c3cccc(F)c3)nc12	3.73 µM
Cc1cccc(-c2nc3c(C(=O)Nc4ccc5c(c4)CNC5)cc(F)cc3[nH]2)c1	5.9 µM
Cc1ccccc1-c1nc2c(C(=O)Nc3ccc4c(c3)CNC4)cc(F)cc2[nH]1	3.24 µM
NCc1ccc(-c2csc3cc(C(=O)Nc4ccc5c(c4)CNC5)ccc23)cc1	53.2 µM
NCc1csc2cc(C(=O)Nc3ccc4c(c3)CNC4)ccc12	11.8 µM
O=C(Nc1ccc2c(c1)CNC2)c1cccc2c(C3CNC3)n[nH]c12	32.2 µM
